We go through 26 compounds from patent US20170362243A1, “BIARYLETHER IMIDAZOPYRAZINE BTK INHIBITORS” (MERCK SHARP & DOHME CORP., priority 2014, published 2017).

For orientation: IC50 means the concentration at which inhibition is half-maximal.

The assay deals with T1, BTK enzyme (recombinant full-length BTK, hBTK) (Homo sapiens, UniProt Q06187).
T1 construct: recombinant protein from baculovirus-transfected Sf9 cells: full-length BTK, 6HIS-tag cleaved; 6HIS (cleaved yes); made in house; host or cells: baculovirus-transfected Sf9 cells
T1 sequence (Q06187 whole entry): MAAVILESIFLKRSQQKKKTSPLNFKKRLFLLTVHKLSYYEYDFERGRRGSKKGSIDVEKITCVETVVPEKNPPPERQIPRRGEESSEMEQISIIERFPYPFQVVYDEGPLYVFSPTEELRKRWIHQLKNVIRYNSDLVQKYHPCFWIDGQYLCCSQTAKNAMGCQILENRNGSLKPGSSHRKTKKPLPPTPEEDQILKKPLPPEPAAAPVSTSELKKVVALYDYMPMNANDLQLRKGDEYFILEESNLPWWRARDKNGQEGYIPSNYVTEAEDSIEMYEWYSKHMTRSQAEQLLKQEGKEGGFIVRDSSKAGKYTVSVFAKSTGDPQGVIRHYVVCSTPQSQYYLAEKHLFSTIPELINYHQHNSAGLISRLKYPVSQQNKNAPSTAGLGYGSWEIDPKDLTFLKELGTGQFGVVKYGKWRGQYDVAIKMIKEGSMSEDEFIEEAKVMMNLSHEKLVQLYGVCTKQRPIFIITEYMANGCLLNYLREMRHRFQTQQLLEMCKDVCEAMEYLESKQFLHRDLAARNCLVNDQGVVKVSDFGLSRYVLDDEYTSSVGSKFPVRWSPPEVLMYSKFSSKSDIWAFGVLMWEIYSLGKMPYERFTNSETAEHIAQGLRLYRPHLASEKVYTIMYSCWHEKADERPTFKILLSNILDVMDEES
Nature of the assay: Btk enzyme activity assay, LANCE TR-FRET. Format: biochemical. To be noted: 50 pM hBTK, 2 μM biotin-A5-peptide, 25 μM ATP, 60 minute compound & enzyme incubation, read-out: BTK binding IC50. How it is done:
BTK enzymatic activity was determined with the LANCE (Lanthanide Chelate Excite) TR-FRET (Time-resolved fluorescence resonance energy transfer) assay. In this assay, the potency (IC50) of each compound was determined from an eleven point (1:3 serial dilution; final compound concentration range in assay from 1 μM to 0.017 nM) titration curve using the following outlined procedure. To each well of a black non-binding surface Corning 384-well microplate (Corning Catalog #3820), 5 nL of compound (2000 fold dilution in final assay volume of 10 μL) was dispensed, followed by the addition of 7.5 μL of 1× kinase buffer (50 mM Hepes 7.5, 10 mM MgCl2, 0.01% Brij-35, 1 mM EGTA, 0.05% BSA & 1 mM DTT) containing 5.09 pg/μL (66.67 pM) of BTK enzyme (recombinant protein from baculovirus-transfected Sf9 cells: full-length BTK, 6HIS-tag cleaved). Following a 60 minute compound & enzyme incubation, each reaction was initiated by the addition of 2.5 μL 1× kinase buffer containing 8 μM biotinylated “A5” peptide (Biotin-EQEDEPEGDYFEWLE-NH2) (SEQ.ID.NO.: 1), and 100 μM ATP. The final reaction in each well of 10 μL consists of 50 pM hBTK, 2 μM biotin-A5-peptide, and 25 μM ATP. Phosphorylation reactions were allowed to proceed for 120 minutes. Reactions were immediately quenched by the addition of 20 uL of 1× quench buffer (15 mM EDTA, 25 mM Hepes 7.3, and 0.1% Triton X-100) containing detection reagents (0.626 nM of LANCE-Eu-W1024-anti-phosphoTyrosine antibody, PerkinElmer and 86.8 nM of Streptavidin-conjugated Dylight 650, Dyomics/ThermoFisher Scientific). After 60 minutes incubation with detection reagents, reaction plates were read on a PerkinElmer EnVision plate reader using standard TR-FRET protocol. Briefly, excitation of donor molecules (Eu-chelate:anti-phospho-antibody) with a laser light source at 337 nm produces energy that can be transferred to Dylight-650 acceptor molecules if this donor:acceptor pair is within close proximity. Fluorescence intensity at both 665 nm (acceptor) and 615 nm (donor) are measured and a TR-FRET ratio calculated for each well (acceptor intensity/donor intensity). IC50 values were determined by 4 parameter robust fit of TR-FRET ratio values vs. (Log10) compound concentrations.
The following Table 3 provides specific IC50 values for all the examples. The IC50 values set forth below were determined according to Assay method described above.
On the technique in general: TR-FRET usually uses a lanthanide donor and a delayed reading to cut background.
Consider `Nc1nccn2c([C@@H]3CCC[C@@H](C(=O)O)C3)nc(-c3ccc(Oc4ccccc4)cc3)c12` (relative stereo) [Example 30, Trans-3-(8-amino-1-(4-phenoxyphenyl)imidazo[1,5-a]pyrazin-3-yl)cyclohexanecarboxylic acid], for which the half-maximal inhibitory concentration (IC50) was found to be 0.18 nM. As to `Nc1nccn2c(C3CCC(C(=O)O)O3)nc(-c3ccc(Oc4ccccc4)cc3)c12` (single isomer, unassigned) [Example 26, 5-[8-amino-1-(4-phenoxyphenyl)imidazo[1,5-a]pyrazin-3-yl]tetrahydrofuran-2-carboxylic acid (E1)], the IC50 was 12.5 nM. For the compound `Nc1nccn2c(C3CCC(C(=O)O)O3)nc(-c3ccc(Oc4ccccc4)cc3)c12` (single isomer, unassigned) [Example 27, 5-[8-amino-1-(4-phenoxyphenyl)imidazo[1,5-a]pyrazin-3-yl]tetrahydrofuran-2-carboxylic acid (E2)], the IC50 worked out at 12.5 nM. For `CC1(C(=O)O)CCC(C)(c2nc(-c3ccc(Oc4ccccc4)cc3)c3c(N)nccn23)C1` (single isomer, unassigned) [Example 28, 3-[8-amino-1-(4-phenoxyphenyl)imidazo[1,5-a]pyrazin-3-yl]-1,3-dimethylcyclo-pentanecarboxylic acid (E1)], the IC50 came to 0.23 nM. Next, `CC1(C(=O)O)CCC(C)(c2nc(-c3ccc(Oc4ccccc4)cc3)c3c(N)nccn23)C1` (single isomer, unassigned) [Example 29, 3-[8-amino-1-(4-phenoxyphenyl)imidazo[1,5-a]pyrazin-3-yl]-1,3-dimethylcyclo-pentanecarboxylic acid (E2)]: 1.3 nM. In the case of `CC(C)[C@@]1(C(=O)O)CCC(c2nc(-c3ccc(Oc4cccc(F)c4)cc3)c3c(N)nccn23)C1` (stereo in doubt) [Example 4, (1R,3S)-3-{8-amino-1-[4-(3-fluorophenoxy)phenyl]imidazo[1,5-a]pyrazin-3-yl}-1-(1-methylethyl)cyclo-pentanecarboxylic acid], the 50% inhibitory concentration (IC50) was 4.4 nM. Next, `CC(C)C1(C(=O)O)CC[C@H](c2nc(-c3ccc(Oc4cccc(F)c4)cc3)c3c(N)nccn23)C1` (stereo in doubt) [Example 5, (1R,3S)-3-{8-amino-1-[4-(3-fluorophenoxy)phenyl]imidazo[1,5-a]pyrazin-3-yl}-1-(1-methylethyl)cyclo-pentanecarboxylic acid]: 1.4 nM; `Nc1nccn2c(N3CCC[C@H](C(=O)O)C3)nc(-c3ccc(Oc4ccccc4)cc3)c12` [Example 1, (S)-1-(8-amino-1-(4-phenoxyphenyl)imidazo[1,5-a]pyrazin-3-yl)piperidine-3-carboxylic acid]: 2.7 nM; `CC(C)[C@]1(C(=O)O)CC[C@@H](c2nc(-c3ccc(Oc4cccc(F)c4)cc3)c3c(N)nccn23)C1` [Example 2, (1S,3R)-3-{8-amino-1-[4-(3-fluorophenoxy)phenyl]imidazo[1,5-a]pyrazin-3-yl}-1-(1-methylethyl)cyclo-pentanecarboxylic acid]: 2 nM. Under `CC(C)[C@@]1(C(=O)O)CC[C@H](c2nc(-c3ccc(Oc4cccc(F)c4)cc3)c3c(N)nccn23)C1` [Example 3, (1R,3S)-3-{8-amino-1-[4-(3-fluorophenoxy)phenyl]imidazo[1,5-a]pyrazin-3-yl}-1-(1-methylethyl)cyclo-pentanecarboxylic acid] stands 19.5 nM. As to `Nc1nccn2c(C34CCC(C(=O)O)(CC3)CC4)nc(-c3ccc(Oc4ccccc4)cc3)c12` [Example 6, 4-[8-amino-1-(4-phenoxyphenyl)imidazo[1,5-a]pyrazin-3-yl]bicyclo[2.2.2]octane-1-carboxylic acid], the IC50 came to 0.09 nM. For the compound `CC(C)(C(=O)O)C1CCC(c2nc(-c3ccc(Oc4ccccc4)cc3)c3c(N)nccn23)C1` (centres unmarked) [Example 7, 2-{3-[8-amino-1-(4-phenoxyphenyl)imidazo[1,5-a]pyrazin-3-yl]cyclopentyl}-2-methylpropanoic acid], the IC50 is 2.1 nM. As to `CC1(C)[C@@H](c2nc(-c3ccc(Oc4ccccc4)cc3)c3c(N)nccn23)CC[C@@]1(C)C(=O)O` [Example 8, (1R,3S)-3-[8-amino-1-(4-phenoxyphenyl)imidazo [1,5-a]pyrazin-3-yl]-1,2,2-trimethylcyclopenta-carboxylic acid], the IC50 is 0.7 nM. Turning to `Nc1nccn2c([C@@H]3CCC[C@H](C(=O)O)C3)nc(-c3ccc(Oc4ccccc4)cc3)c12` [Example 9, (1S,3R)-3-[8-amino-1-(4-phenoxyphenyl)imidazo[1,5-a]pyrazin-3-yl]cyclohexanecarboxylic acid], the IC50 was 7.1 nM. On to `CC1(C(=O)O)CCCC(c2nc(-c3ccc(Oc4ccccc4)cc3)c3c(N)nccn23)C1` (centres unmarked) [Example 10, 3-[8-amino-1-(4-phenoxyphenyl)imidazo [1,5-a]pyrazin-3-yl]-1-mehtylcyclohexane-carboxylic acid], for which the IC50 turned out to be 1.6 nM. For the compound `Nc1nccn2c1c(-c1ccc(Oc3cccc(F)c3)cc1)nc2[C@H]1CC[C@@H](C(=O)O)CC1` [Example 11, cis-4-{8-amino-1-[4-(3-fluorophenoxy)phenyl]imidazo[1,5-a]pyrazin-3-yl}cyclohexanecarboxylic acid], the IC50 turned out to be 14.3 nM. For `Nc1nccn2c1c(-c1ccc(Oc3cccc(F)c3)cc1)nc2[C@H]1CC[C@H](C(=O)O)CC1` [Example 12, trans-4-{8-amino-1-[4-(3-fluorophenoxy)phenyl]imidazo[1,5-a]pyrazin-3-yl}cyclohexanecarboxylic acid], the IC50 was found to be 1 nM.

On to `C[C@]1(C(=O)O)CCC[C@@H](c2nc(-c3ccc(Oc4cccc(F)c4)cc3)c3c(N)nccn23)C1` [Example 13, (1S,3R)-3-{8-amino-1-[4-(3-fluorophenoxy)phenyl]imidazo[1,5-a]pyrazin-3-yl}-1-methylcyclohexanecarboxylic acid], for which the IC50 came out at 5.9 nM.

Take `C[C@]1(C(=O)O)CCC[C@@H](c2nc(-c3ccc(Oc4ccccc4)cc3)c3c(N)nccn23)C1` [Example 14, (1S,3R)-3-[8-amino-1-(4-phenoxyphenyl)imidazo [1,5-a]pyrazin-3-yl]-1-methylcyclohexane-carboxylic acid]: the IC50 turned out to be 2.4 nM. As to `C[C@@]1(C(=O)O)CCC[C@H](c2nc(-c3ccc(Oc4ccccc4)cc3)c3c(N)nccn23)C1` [Example 15, (1R,3S)-3-[8-amino-1-(4-phenoxyphenyl)imidazo [1,5-a]pyrazin-3-yl]-1-methylcyclohexane-carboxylic acid], the IC50 was determined as 1.3 nM.

Take `C[C@@]1(C(=O)O)CCC[C@H](c2nc(-c3ccc(Oc4cccc(F)c4)cc3)c3c(N)nccn23)C1` [Example 16, (1R,3S)-3-{8-amino-1-[4-(3-fluorophenoxy)phenyl]imidazo[1,5-a]pyrazin-3-yl}-1-methylcyclohexane-carboxylic acid]: the IC50 turned out to be 3.3 nM. Next, `Nc1nccn2c1c(-c1ccc(Oc3ccccc3)cc1)nc2[C@H]1CC[C@H](C(=O)O)CC1` [Example 17, trans-4-[8-amino-1-(4-phenoxyphenyl)imidazo [1,5-a]pyrazin-3-yl]cyclohexane-carboxylic acid]: 0.5 nM; `CC1(C)[C@@H](C(=O)O)C[C@H]1c1nc(-c2ccc(Oc3ccccc3)cc2)c2c(N)nccn12` [Example 18, (1 S,3R)-3-(8-amino-1-(4-phenoxyphenyl)imidazo[1,5-a]pyrazin-3-1)-2,2-dimethylcyclobutanecarboxylic acid]: 3.5 nM.

Consider `CCC[C@]1(C(=O)O)CCC[C@@H](c2nc(-c3ccc(Oc4ccccc4)cc3)c3c(N)nccn23)C1` [Example 19, (1S,3R)-3-[8-amino-1-(4-pheenoxyphenyl)imidazo[1,5-a]pyrazin-3-yl]-1-propylcyclohexane-carboxylic acid], for which the IC50 worked out at 200 nM. Consider `CCC[C@@]1(C(=O)O)CCC[C@@H](c2nc(-c3ccc(Oc4ccccc4)cc3)c3c(N)nccn23)C1` [Example 20, (1R,3R)-3-[8-amino-1-(4-phenoxyphenyl)imidazo[1,5-a]pyrazin-3-yl]-1-propylcyclohexane-carboxylic acid], for which the IC50 worked out at 4.9 nM. Turning to `Nc1nccn2c(C34CCCC(C(=O)O)(CC3)CC4)nc(-c3ccc(Oc4ccccc4)cc3)c12` [Example 21, 5-[8-amino-1-(4-phenoxyphenyl)imidazo[1,5-a]pyrazin-3-yl]bicyclo[3.2.2] nonane-1-carboxylic acid], the IC50 was found to be 0.14 nM.
